What follows are compounds tested on c-Myc (assay: c-Myc immunofluorescence assay). Conditions: A549 cells, 24 hours, anti-c-Myc immunofluorescence.
Type: cell-based, human
Procedure, shortened: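 A549 NSCLC cells grown 48 h, then treated 24 h with increasing compound concentrations; fixed in 4% paraformaldehyde, stained with anti-c-Myc antibody plus fluorescent secondary and DAPI. Per-cell c-Myc fluorescence quantified by high-content imaging at 20×; dose-response fitted by logistic regression to give EC50.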

Compound	Myc Efficacy (−LogEC50)
O=C(C1CCN(c2nc(-c3ccncc3)no2)CC1)N1CCOCC1 [Compound 202, morpholino(1-(3-(pyridin-4-yl)-1,2,4-oxadiazol-5-yl)piperidin-4-yl)methanone]	+ (+ >3 and <5)
COc1ccc(-c2noc(N3CCC(C(=O)N[C@@H]4CC[C@H](O)C4)CC3)n2)cc1 [Compound 274, N-((1R,3S)-3-hydroxycyclopentyl)-1-(3-(4-methoxyphenyl)-1,2,4-oxadiazol-5-yl)piperidine-4-carboxamide]	+ (+ >3 and <5)
CN1CCC[C@H](CN2CC[C@H](CNC(=O)C3CCN(c4nc(-c5ccc(Cl)cc5)no4)CC3)C2)C1 (single isomer, unassigned) [Compound 471]	++ (++ ≥5 and <6)
COc1ccc(-c2noc(N3CCC(C(=O)NC[C@@H]4CCCC[C@H]4O)CC3)n2)cc1 [Compound 293, N-(((1S,2R)-2-hydroxycyclohexyl)methyl)-1-(3-(4-methoxyphenyl)-1,2,4-oxadiazol-5-yl)piperidine-4-carboxamide]	+ (+ >3 and <5)
COc1ccc(-c2noc(N3CCN(C(C)=O)CC3)n2)cc1 [Compound 147, 1-(4-(3-(4-methoxyphenyl)-1,2,4-oxadiazol-5-yl)piperazin-1-yl)ethan-1-one]	+ (+ >3 and <5)
COc1ccc(-c2noc(N3CCC(C(=O)NCCCN(C)c4ccccc4)CC3)n2)cc1 [Compound 130, 1-(3-(4-methoxyphenyl)-1,2,4-oxadiazol-5-yl)-N-(3-(methyl(phenyl)amino)propyl)piperidine-4-carboxamide]	+ (+ >3 and <5)
COc1ccc(-c2noc(N3CCC(C(=O)NC(CO)c4cccs4)CC3)n2)cc1 (stereo not shown) [Compound 262, N-(2-hydroxy-1-(thiophen-2-yl)ethyl)-1-(3-(4-methoxyphenyl)-1,2,4-oxadiazol-5-yl)piperidine-4-carboxamide]	+ (+ >3 and <5)
COc1ccc(-c2noc(N3CCC(C(=O)NCC4CCN(Cc5ccccc5)C4)CC3)n2)cc1 (stereo not shown) [Compound 342, N-((1-benzylpyrrolidin-3-yl)methyl)-1-(3-(4-methoxyphenyl)-1,2,4-oxadiazol-5-yl)piperidine-4-carboxamide]	++ (++ ≥5 and <6)
COc1ccc(-c2noc(N3CCC(C(=O)Nc4ccccc4)CC3)n2)cc1 [Compound 143, 1-(3-(4-methoxyphenyl)-1,2,4-oxadiazol-5-yl)-N-phenylpiperidine-4-carboxamide]	++ (++ ≥5 and <6)
COc1ccc(-c2noc(N3CCC(C(=O)NCC4CCN(CC(F)(F)F)C4)CC3)n2)cc1 (stereo not shown) [Compound 343, 1-(3-(4-methoxyphenyl)-1,2,4-oxadiazol-5-yl)-N-((1-(2,2,2-trifluoroethyl)pyrrolidin-3-yl)methyl)piperidine-4-carboxamide]	+ (+ >3 and <5)
COc1ccc(-c2coc(N3CCC(C(=O)NCC4CCN(Cc5ccc(C)cc5)C4)CC3)n2)cc1 (stereo not shown) [Compound 196, 1-(4-(4-methoxyphenyl)oxazol-2-yl)-N-((1-(4-methylbenzyl)pyrrolidin-3-yl)methyl)piperidine-4-carboxamide]	++ (++ ≥5 and <6)
COc1ccc(-c2noc(N3CCC(C(=O)NCC4CCN(C[C@@H]5CCCNC5)C4)CC3)n2)cc1 (stereo partly drawn) [Compound 412, 1-(3-(4-methoxyphenyl)-1,2,4-oxadiazol-5-yl)-N-((1-(((R)-piperidin-3-yl)methyl)pyrrolidin-3-yl)methyl)piperidine-4-carboxamide]	− (− ≤3)
COc1ccc(-c2noc(N3CCC(C(=O)NC[C@@H]4CCN(Cc5ccc(C)cc5)C4)CC3)n2)cc1 [Compound 107, (S)-1-(3-(4-methoxyphenyl)-1,2,4-oxadiazol-5-yl)-N-((1-(4-methylbenzyl)pyrrolidin-3-yl)methyl)piperidine-4-carboxamide]	+ (+ >3 and <5)
Cc1ccc(CN2CCC(CNC(=O)C3CCN(c4nc(-c5ccc(C#N)cc5)no4)CC3)C2)nc1 (stereo not shown) [Compound 244, 1-(3-(4-cyanophenyl)-1,2,4-oxadiazol-5-yl)-N-((1-((5-methylpyridin-2-yl)methyl)pyrrolidin-3-yl)methyl)piperidine-4-carboxamide]	+ (+ >3 and <5)
COc1ccc(-c2noc(N3CCC(C(=O)NCC4CCN(CC5CCO5)C4)CC3)n2)cc1 (stereo not shown) [Compound 395, 1-(3-(4-methoxyphenyl)-1,2,4-oxadiazol-5-yl)-N-((1-(oxetan-2-ylmethyl)pyrrolidin-3-yl)methyl)piperidine-4-carboxamide]	+ (+ >3 and <5)
COc1ccc(-c2noc(N3CCC(C(=O)NCC4CCN(Cc5cccn5C)C4)CC3)n2)cc1 (stereo not shown) [Compound 363, 1-(3-(4-methoxyphenyl)-1,2,4-oxadiazol-5-yl)-N-((1-((1-methyl-1H-pyrrol-2-yl)methyl)pyrrolidin-3-yl)methyl)piperidine-4-carboxamide]	+ (+ >3 and <5)

Compound	Myc Efficacy (−LogEC50)
COc1ccc(-c2noc(N3CCC(C(=O)NC4=NCCS4)CC3)n2)cc1 [Compound 261, N-(4,5-dihydrothiazol-2-yl)-1-(3-(4-methoxyphenyl)-1,2,4-oxadiazol-5-yl)piperidine-4-carboxamide]	+ (+ >3 and <5)
COc1ccc(-c2noc(N3CCC(C(=O)NCC4CCN(C(=O)c5ccc(C)cc5)C4)CC3)n2)cc1 (stereo not shown) [Compound 222, 1-(3-(4-methoxyphenyl)-1,2,4-oxadiazol-5-yl)-N-((1-(4-methylbenzoyl)pyrrolidin-3-yl)methyl)piperidine-4-carboxamide]	++ (++ ≥5 and <6)
COc1ccc(-c2noc(N3CCC(C(=O)NC(C)C(C)(C)O)CC3)n2)cc1 (stereo not shown) [Compound 297, N-(3-hydroxy-3-methylbutan-2-yl)-1-(3-(4-methoxyphenyl)-1,2,4-oxadiazol-5-yl)piperidine-4-carboxamide]	+ (+ >3 and <5)
COc1ccc(-c2noc(N3CCC(C(=O)NCC4CCN(Cc5cnccc5C)C4)CC3)n2)cc1 (stereo not shown) [Compound 329, 1-(3-(4-methoxyphenyl)-1,2,4-oxadiazol-5-yl)-N-((1-((4-methylpyridin-3-yl)methyl)pyrrolidin-3-yl)methyl)piperidine-4-carboxamide]	+ (+ >3 and <5)
COc1ccc(-c2noc(N3CCC(C(=O)NCC4CCN(CC5CCSCC5)C4)CC3)n2)cc1 (stereo not shown) [Compound 354, 1-(3-(4-methoxyphenyl)-1,2,4-oxadiazol-5-yl)-N-((1-((tetrahydro-2H-thiopyran-4-yl)methyl)pyrrolidin-3-yl)methyl)piperidine-4-carboxamide]	++ (++ ≥5 and <6)
COc1ccc(-c2noc(N3CCC(C(=O)NCc4cccs4)CC3)n2)cc1 [Compound 120, 1-(3-(4-methoxyphenyl)-1,2,4-oxadiazol-5-yl)-N-(thiophen-2-ylmethyl)piperidine-4-carboxamide]	+ (+ >3 and <5)
COc1ccc(-c2noc(N3CCC(C(=O)NCCCN4CCC[C@H](C)C4)CC3)n2)cc1 [Compound 141, (S)-1-(3-(4-methoxyphenyl)-1,2,4-oxadiazol-5-yl)-N-(3-(3-methylpiperidin-1-yl)propyl)piperidine-4-carboxamide]	− (− ≤3)
COc1ccc(-c2noc(N3CCC(C(=O)NCC4CCN(Cc5ccccn5)C4)CC3)n2)cc1 (stereo not shown) [Compound 340, 1-(3-(4-methoxyphenyl)-1,2,4-oxadiazol-5-yl)-N-((1-(pyridin-2-ylmethyl)pyrrolidin-3-yl)methyl)piperidine-4-carboxamide]	++ (++ ≥5 and <6)
COc1ccc(-c2noc(N3CCC(C(=O)NCC4CCN(C5CCCOCC5)C4)CC3)n2)cc1 (stereo not shown) [Compound 400, 1-(3-(4-methoxyphenyl)-1,2,4-oxadiazol-5-yl)-N-((1-(oxepan-4-yl)pyrrolidin-3-yl)methyl)piperidine-4-carboxamide]	+ (+ >3 and <5)
CCN1CCC(CNC(=O)C2CCN(c3nc(-c4ccc(OC)cc4)no3)CC2)C1 (stereo not shown) [Compound 376, N-((1-ethylpyrrolidin-3-yl)methyl)-1-(3-(4-methoxyphenyl)-1,2,4-oxadiazol-5-yl)piperidine-4-carboxamide]	− (− ≤3)
O=C(NCCCN1CCC(Cc2ccccn2)CC1)N1CCN(c2nc(-c3ccc(C(F)F)cc3)no2)CC1 [Compound 460, 4-(3-(4-(difluoromethyl)phenyl)-1,2,4-oxadiazol-5-yl)-N-(3-(4-(pyridin-2-ylmethyl)piperidin-1-yl)propyl)piperazine-1-carboxamide]	+++ (+++ ≥6)
CN1CCC[C@@H](CN2CC[C@@H](CNC(=O)C3CCN(c4nc(-c5ccc(Cl)cc5)no4)CC3)C2)C1 [Compound 474, 1-(3-(4-chlorophenyl)-1,2,4-oxadiazol-5-yl)-N-(((S)-1-(((R)-1-methylpiperidin-3-yl)methyl)pyrrolidin-3-yl)methyl)piperidine-4-carboxamide]	++ (++ ≥5 and <6)
COc1ccc(-c2noc(N3CCN(c4nc5ccccc5[nH]4)CC3)n2)cc1 [Compound 235, 5-(4-(1H-benzo[d]imidazol-2-yl)piperazin-1-yl)-3-(4-methoxyphenyl)-1,2,4-oxadiazole]	+ (+ >3 and <5)
Cc1ccc(CN2CCC(CNC(=O)C3CCN(c4nc(-c5ccc(OC(F)(F)F)cc5)no4)CC3)C2)cc1 (stereo not shown) [Compound 237, N-((1-(4-methylbenzyl)pyrrolidin-3-yl)methyl)-1-(3-(4-(trifluoromethoxy)phenyl)-1,2,4-oxadiazol-5-yl)piperidine-4-carboxamide]	++ (++ ≥5 and <6)
COc1ccc(-c2noc(N3CCC(C(=O)NCC4CCN(Cc5ccc(C)o5)C4)CC3)n2)cc1 (stereo not shown) [Compound 379, 1-(3-(4-methoxyphenyl)-1,2,4-oxadiazol-5-yl)-N-((1-((5-methylfuran-2-yl)methyl)pyrrolidin-3-yl)methyl)piperidine-4-carboxamide]	++ (++ ≥5 and <6)
